In patent publication US12178845B2, “Methods and compositions relating to the treatment of tumors” (THE GENERAL HOSPITAL CORPORATION, priority 2016, dated 2024):
Peptide text beside a SMILES is read from it. * marks the point of attachment. Cbz = O=C(OCc1ccccc1)*; CH2F = FC*

Columns and labels:
[1] = system: HEI-193 cells; experiment: In vitro apoptosis staining (TACS 2 TdT-DAB); assay type: cell-based, human; conditions: HEI-193 transfected with pAAV-CBA-hASC
Experimental: To determine whether the ASC/TMS1-mediated growth inhibition was the result of caspases induced apoptosis, in vitro apoptosis staining was performed using TACS 2 TdT-DAB In situ Apoptosis Detection kit (Trevigen).
Apoptosis assay. In-vitro DNA fragmentation of apoptotic cells was assessed TACS® 2 TdT-DAB in Situ Apoptosis Detection Kit. In brief, HEI-193 cells on the coated cover glass and transfected with dsAAV-CBA-ASC or dsAAV-CBA-GFP. Fragmented DNA were visualized with diaminobenzidine (DAB) and viewed by light microscope. In-vivo apoptosis study was assessed using the same kit on fresh frozen nerves that were sliced to 15 um thin sections using cryostat and fixed in 3.7% formaldehyde.

[2] = system: 08031-9 cells; experiment: In vitro apoptotic body staining; assay type: cell-based, mouse; conditions: 08031-9 transfected with pAAV-CBA-hASC
[3] = system: HEI-193 human schwannoma cell line; conditions: HEI193 cells transfected with pAAV-CBA-hASC
Experimental: For all cell types, growth media were supplemented with 10% fetal bovine serum (FBS; Sigma-Aldrich) and 1% penicillin-streptomycin (Cellgro, Herndon, VA) and cells were maintained at 37° C. in a humidified atmosphere of 5% CO2 and 95% air. […] For transfections in 24-well format, 100,000 cells were seeded 24 hours prior to transfection. 1 μl of liofectamine 2000 (Invitrogen, USA) was used for every 500 ng of transfected plasmid in FBS free medium (Optimem, Invitrogen, USA). The DNA/Lipofectamine mix was incubated at room temperature for 30 minutes before spread over the cells and left for 5-6 hours then replaced by fresh medium. The amount of plasmid/lipofectamine was scaled up according to the plate format used.
Cell viability and toxicity assay. The Cell Titer-Glo™ luminescent cell viability assay (Promega, Madison, WI) was used to determine the number of viable cells in culture on the basis of quantitation of ATP levels, an indicator of metabolically active cells. […] The luminescence was measured with a luminometer (Dynex Technologies, Chantilly, VA). Cell death was measured by the LDH assay using CytoTox 96 Non-Radioactive Cytotoxicity Assay kit (Promega) according to the manufacturer's instructions.

[4] = system: ASC in HEI-193 cell line; experiment: Demethylation of ASC CpG island, ASC expression by RT-PCR; assay type: cell-based, human
Experimental: The cultured cells were treated with (5azadeoxycytindine 0.5, 1 or 2.5 uM) or not treated (0) for 3 days.
Real-time quantitative PCR analyses. RNA isolation from tissue samples was conducted with TRIzol™ reagent according to the manufacturer's instructions (Qiagen, USA) and transcribed into cDNA using superscript VILO™ cDNA synthesis kit (Invitrogen, USA). Taqman™ real-time PCR was carried out using RealPlex MasterCycler™ (eppendorf, USA). […] Taqman probes were purchased from life technologies, USA.

Compound | apoptosis in presence of caspase inhibitor [1] | apoptosis in presence of caspase inhibitor ([1]; listed as ZVADFMK) | apoptosis in presence of caspase inhibitor ([1]; listed as pan-caspase inhibitor) | apoptosis in presence of caspase inhibitor [2] | LDH release cytotoxicity in presence of caspase inhibitor [3] | apoptosis in presence of caspase inhibitor ([1]; listed as ZDEVDFMK) | apoptosis in presence of caspase inhibitor ([1]; listed as caspase-3 inhibitor) | ASC promoter methylation [4] | ASC expression (RT-PCR, normalized to β-actin) ([4]; 0.5, 1 or 2.5 uM for 3 days, ASC-negative HEI-193)
COC(=O)C[C@H](NC(=O)[C@H](C)NC(=O)[C@@H](NC(=O)OCc1ccccc1)C(C)C)C(=O)CF [ZVAD-FMK] (Cbz-Val-Ala-Asp(OMe)-CH2F) | no apoptosis | inhibit | abolished | abolished | inhibited | – | – | – | –
COC(=O)CC[C@H](NC(=O)[C@H](CC(=O)OC)NC(=O)OCc1ccccc1)C(=O)N[C@H](C(=O)N[C@@H](CC(=O)OC)C(=O)CF)C(C)C [ZDEVD-FMK] | no apoptosis | – | – | abolished | inhibited | inhibit | abolished | – | –
Nc1ncn([C@H]2C[C@H](O)[C@@H](CO)O2)c(=O)n1 [5azadeoxycytidine] | – | – | – | – | – | – | – | reversible | restores expression
